Measured values published in patent publication US9410152B2, “Use of microrna molecules to influence skin pigmentation” (CHANEL PARFUMS BEAUTE, priority 2011, dated 2016).

How the values were obtained:
[1] = tested on: protein TYRP1; assay: Western blot of TYRP1 protein; assay type: cell-based, human; settings: MNT-1 cells, 50 nM mimetic, day 12
Method: (§1) 4×10^5 MNT-1 cells were seeded per well in a 6-well plate (#353046, Falcon) on day-1. On day 0, the cells were transfected with 50 nM of mimetic of the miRNAs (hsa-mir-137 # C-300604-07-005, hsa-mir-7 # C-300547-05-0005, hsa-mir-330-5p # C-301082-01-0005, negative control # NC-002000-01-05, Dharmacon), using 5 μL of Lipofectamine 2000 (#1668-019, Invitrogen). On day 1, the medium was changed. On day 3, the cells were trypsinized and seeded at 4×10^5 cells per well. On day 4, the cells were transfected again with 50 nM of mimetic of the miRNAs (see day 0). On day 5, the medium was changed. On day 7, the cells were trypsinized and seeded at 4×10^5 cells per well. On day 8, the cells were transfected with 50 nM of mimetic of the miRNAs (see day 0). On day 9, the medium was changed. On day 10, the cells were trypsinized and divided into two (from one by six wells to two by six wells). On day 12, one six-well plate was used for lysis of the RNA and the other for lysis of the proteins. As positive control of depigmentation, MNT-1 cells were incubated with 3.5 mM of kojic acid (Sigma K3125-5G) for 12 days. The cells were distributed as described and the kojic acid was renewed with the medium every 4 days. The percentage inhibition of the kojic acid is of the order of 10%. […] The concentration of proteins was determined with the BCA Protein Assay (ThermoFisher). […]

[2] = tested on: MLANA; assay: Western blot of MLANA protein; assay type: cell-based, human; settings: MNT-1 cells, 50 nM mimetic, day 12
Method: as §1

[3] = tested on: mutated form of the binding site of miR-330-5p in the 3'UTR TYR region (MUT); assay: Luciferase reporter assay, mutated (MUT) TYR 3'UTR binding site; assay type: cell-based; settings: Lu1205 human melanoma cells, 50 nM mimetic co-transfected, relative to control without insert
Description: (§2) The predicted binding site of miR-330-5p in the 3′UTR (position 68-75 of 3′UTR with total length of 393nt) of TYR (NM 000372) including the adjacent bases was designed using the following primers, and was cloned into the pmirGLO reporter vector (Promega) downstream of the region coding for firefly luciferase and using the Pmel and XbaI sites.
(§3) Ligation of the primers LL2086 (sense) and LL2087 (antisense) represents the wild-type (WT) TYR 3′UTR sequence, whereas ligation of the primers LL2088 (sense) and LL2089 (antisense) represents the mutated form of the binding site of the miR-330-Site 5p in the 3′UTR TYR region (MUT). All the constructs were confirmed by sequencing. On D0, 200,000 Lu1205 cells were seeded in 12-well plates. On D1, the Lu1205 cells were transfected with either 30 ng of pmirGLO empty vector (without insert), or 30 ng of WT construct, or 30 ng of MUT construct. At the same time, the cells were co-transfected with 50 nM of mimetic of miR-330-5p (Dharmacon) using Lipofectamine 2000 (Invitrogen). Forty-eight hours after transfection, the cells were collected and analyzed both with firefly luciferase and with Renilla luciferase (included in the pmirGLO vector) using the luciferase double assay (Promega) and a luminometer (Microlumatplus LB96V, Berthold Technologies). […] The relative luciferase activity was calculated, establishing the condition of non-insertion as 1.

[4] = tested on: binding site of miR-330-5p in the 3'UTR of tyrosinase (TYR), WT; assay: Luciferase reporter assay, wild-type (WT) TYR 3'UTR binding site; assay type: cell-based; settings: Lu1205 human melanoma cells, 50 nM mimetic co-transfected, relative to control without insert
Description: as §2, §3

Substance	level of protein TYRP1 (Western blot) [1]	level of protein MLANA (Western blot) [2]	luciferase activity, MUT construct [3]	luciferase activity, WT construct [4]
hsa-miR-137: mimetic of miRNA hsa-mir-137 (Dharmacon C-300604-07-005); mature sequence SEQ ID NO: 3 (UUAUUGCUUAAGAAUACGCGUAG; commercial mimic, chemistry not given here; listed as Homo sapiens)	reduces the level of protein TYRP1 slightly	eliminates		
hsa-miR-330-5p: mimetic of miRNA hsa-mir-330-5p (Dharmacon C-301082-01-0005); mature sequence 5'-UCUCUGGGCCUGUGUCUUAGGC-3' (SEQ ID NO: 1) (UCUCUGGGCCUGUGUCUUAGGC; mimic duplex, passenger strand not given here; listed as Homo sapiens)			restoration of luciferase activity	considerably reduced
